The compounds below were run against T1, bovine cardiac myosin (Bos taurus, UniProt Q9BE39) (assay: Myosin inhibition assay (PK/LDH-coupled ATPase, bovine cardiac myofibrils)). Settings: calcium concentration giving 50% activation (pCa50), read-out: Biochemical Activity (pCa50).
T1 construct: The source of cardiac myosin was from bovine heart in the form of skinned myofibrils; from tissue; host or cells: bovine heart (skinned myofibrils)
Type: biochemical
Procedure: Small molecule agents were assessed for their ability to inhibit the enzymatic activity of bovine cardiac myosin using a biochemical assay that couples the release of ADP (adenosine diphosphate) from cardiac myosin to an enzymatic coupling system consisting of pyruvate kinase and lactate dehydrogenase (PK/LDH) and monitoring the absorbance decrease of NADH (at 340 nm) as a function of time. PK converts ADP to ATP (adenosine triphosphate) by converting PEP (phosphoenolpyruvate) to pyruvate. Pyruvate is then converted to lactate by LDH by converting NADH (nicotinamide adenine dinucleotide) to NAD (oxidized nicotinamide adenine dinucleotide). The source of cardiac myosin was from bovine heart in the form of skinned myofibrils. Prior to testing small molecule agents, the bovine myofibrils were assessed for their calcium responsiveness and the calcium concentration that achieves either a 50% (pCa50) or 75% (pCa75) activation of the myofibril system was chosen as the final condition for assessing the inhibitory activity of the small molecule agents. All enzymatic activity was measured in a buffered solution containing 12 mM PIPES (piperazine-N,N′-bis(2-ethanesulfonic acid), 2 mM magnesium chloride at pH 6.8 (PM12 buffer). Final assay conditions were 1 mg/mL of bovine cardiac myofibrils, 0.4 mM PK/LDH, 50 uM ATP, 0.1 mg/mL BSA (bovine serum albumin), 10 ppm antifoam, 1 mM DTT, 0.5 mM NADH, 1.5 mM PEP at the desired free calcium concentration required to achieve either 50% or 75% activation of the myofibrils.
A dilution series of compound was created in DMSO such that the final desired concentration of compound would be achieved in a volume of 100 μL with a fixed DMSO concentration of 2% (v/v). Typically 2 μL of the dilution series were added to 96 well plate to achieve an 8 or 12 point dose response. Following the addition of 50 μL of a solution containing bovine cardiac myofibrils, PK/LDH and a solution of calcium (that achieved the desired activation), the enzymatic reaction was started with the addition of 50 μL of a solution containing ATP, PEP and NADH. The reaction progress was followed in a Molecular Devices M5e plate reader at ambient temperature using clear half area plates. The plate reader was configured to read absorbance at 340 nm in kinetics mode for 15 minutes. Data were recorded as the slope of the absorbance response to time. The slopes of the absorbance response as a function of time were normalized to slopes on the plate containing DMSO. This normalized rate was then plotted as a function of small molecule concentration and the data was fitted to a four-parameter fit using GraphPad Prism. The midpoint of this plot is the IC50 and is the concentration at which fifty percent of the total response is inhibited.

T1 sequence (Q9BE39 whole entry): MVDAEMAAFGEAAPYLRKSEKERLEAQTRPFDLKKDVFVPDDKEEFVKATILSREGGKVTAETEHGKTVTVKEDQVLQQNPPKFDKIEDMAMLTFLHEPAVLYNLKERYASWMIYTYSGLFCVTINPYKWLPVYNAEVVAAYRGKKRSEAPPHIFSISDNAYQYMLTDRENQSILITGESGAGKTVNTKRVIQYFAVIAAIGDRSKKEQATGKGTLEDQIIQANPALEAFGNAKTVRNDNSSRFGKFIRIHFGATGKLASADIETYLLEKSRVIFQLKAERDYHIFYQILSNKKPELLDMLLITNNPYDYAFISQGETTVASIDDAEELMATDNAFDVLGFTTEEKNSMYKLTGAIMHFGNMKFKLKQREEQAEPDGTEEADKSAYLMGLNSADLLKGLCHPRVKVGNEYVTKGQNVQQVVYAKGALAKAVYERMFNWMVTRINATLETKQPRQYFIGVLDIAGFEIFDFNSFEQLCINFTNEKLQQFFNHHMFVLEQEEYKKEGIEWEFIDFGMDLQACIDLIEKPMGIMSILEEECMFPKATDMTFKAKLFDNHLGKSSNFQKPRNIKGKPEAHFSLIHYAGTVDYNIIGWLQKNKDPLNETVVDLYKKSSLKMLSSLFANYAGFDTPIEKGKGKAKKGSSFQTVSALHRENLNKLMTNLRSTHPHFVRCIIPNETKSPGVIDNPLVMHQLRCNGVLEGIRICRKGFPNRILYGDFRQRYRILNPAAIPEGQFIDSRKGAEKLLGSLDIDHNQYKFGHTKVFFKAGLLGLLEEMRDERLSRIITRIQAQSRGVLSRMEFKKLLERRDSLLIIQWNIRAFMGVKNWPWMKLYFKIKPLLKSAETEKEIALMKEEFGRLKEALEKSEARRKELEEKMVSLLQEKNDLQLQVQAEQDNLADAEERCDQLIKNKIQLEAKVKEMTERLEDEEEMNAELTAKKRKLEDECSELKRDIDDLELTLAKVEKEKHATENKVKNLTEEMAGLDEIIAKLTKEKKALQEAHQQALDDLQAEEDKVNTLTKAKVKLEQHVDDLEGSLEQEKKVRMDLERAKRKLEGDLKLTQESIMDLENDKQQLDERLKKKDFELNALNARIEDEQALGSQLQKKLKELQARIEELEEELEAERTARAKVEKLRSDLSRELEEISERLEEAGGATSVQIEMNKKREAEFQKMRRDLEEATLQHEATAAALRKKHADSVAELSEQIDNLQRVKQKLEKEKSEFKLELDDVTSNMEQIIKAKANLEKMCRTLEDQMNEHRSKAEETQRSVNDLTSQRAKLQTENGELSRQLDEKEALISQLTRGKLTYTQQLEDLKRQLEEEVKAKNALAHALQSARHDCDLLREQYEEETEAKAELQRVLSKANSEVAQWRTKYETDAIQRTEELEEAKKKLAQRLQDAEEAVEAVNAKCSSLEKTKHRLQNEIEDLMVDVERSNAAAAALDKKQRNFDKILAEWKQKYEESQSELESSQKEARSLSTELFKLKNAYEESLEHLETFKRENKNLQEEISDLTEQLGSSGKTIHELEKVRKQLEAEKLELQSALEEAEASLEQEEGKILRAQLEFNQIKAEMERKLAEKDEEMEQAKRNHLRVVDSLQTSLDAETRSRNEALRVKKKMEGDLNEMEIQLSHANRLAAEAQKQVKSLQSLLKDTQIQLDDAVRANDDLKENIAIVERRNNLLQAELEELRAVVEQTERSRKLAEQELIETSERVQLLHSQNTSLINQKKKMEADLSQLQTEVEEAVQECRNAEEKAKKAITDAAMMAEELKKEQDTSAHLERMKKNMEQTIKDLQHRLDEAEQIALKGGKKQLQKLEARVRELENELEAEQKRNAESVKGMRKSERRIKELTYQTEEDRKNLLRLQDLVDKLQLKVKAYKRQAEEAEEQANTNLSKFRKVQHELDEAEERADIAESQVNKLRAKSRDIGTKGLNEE
T1 sequence (P85100 whole entry partner): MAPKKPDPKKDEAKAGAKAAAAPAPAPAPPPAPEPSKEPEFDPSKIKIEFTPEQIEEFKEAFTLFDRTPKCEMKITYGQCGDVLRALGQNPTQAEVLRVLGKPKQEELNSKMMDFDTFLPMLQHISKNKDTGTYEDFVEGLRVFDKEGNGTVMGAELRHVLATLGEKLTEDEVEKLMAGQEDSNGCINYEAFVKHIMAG
T1 sequence (Q3SZE5 whole entry partner): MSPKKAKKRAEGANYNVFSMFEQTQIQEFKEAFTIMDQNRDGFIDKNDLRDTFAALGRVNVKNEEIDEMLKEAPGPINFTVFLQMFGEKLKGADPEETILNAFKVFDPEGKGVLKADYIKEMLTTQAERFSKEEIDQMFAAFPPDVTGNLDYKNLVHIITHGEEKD

First: C[C@@H](CC1CCC(F)(F)CC1)Nc1cc(=O)n(-c2cc(F)cc(F)c2)c(=O)[nH]1 [Compound 11, (S)-6-((1-(4,4-difluorocyclohexyl)propan-2-yl)amino)-3-(3,5-difluorophenyl)pyrimidine-2,4(1H,3H)-dione]
Second: C[C@@H](CC1CC(F)(F)C1)Nc1cc(=O)n(-c2cc(F)cc(F)c2)c(=O)[nH]1 [Compound 12, (S)-6-((1-(3,3-difluorocyclobutyl)propan-2-yl)amino)-3-(3,5-difluorophenyl)pyrimidine-2,4(1H,3H)-dione]
The IC50 of the first is lower: less than 1000 nM for the first, 1000 to 15000 nM for the second.

Same assay, conditions: calcium concentration giving 75% activation (pCa75), read-out: Biochemical Activity (pCa75)

`CC(C)n1c(=O)cc(N[C@@H](C)C2CCCCC2)[nH]c1=O` [Compound 6, (S)-6-((1-cyclohexylethyl)amino)-3-isopropylpyrimidine-2,4(1H,3H)-dione] and `CC(C)n1c(=O)cc(N[C@@H](C)C2CCC(F)(F)CC2)[nH]c1=O` [Compound 9, (S)-6-((1-(4,4-difluorocyclohexyl)ethyl)amino)-3-isopropylpyrimidine-2,4(1H,3H)-dione] cannot be ordered by IC50: less than 1000 nM for the first, less than 1000 nM for the second.

`CC(C)n1c(=O)[nH]c(N[C@@H](C)C2CCC(F)(F)CC2)c(F)c1=O` [Compound 5, (S)-6-((1-(4,4-difluorocyclohexyl)ethyl)amino)-5-fluoro-3-isopropylpyrimidine-2,4(1H,3H)-dione] and `CC(C)n1c(=O)cc(N[C@@H](C)CC2CCC(F)(F)CC2)[nH]c1=O` [Compound 3, (S)-6-((1-(4,4-Difluorocyclohexyl)propan-2-yl)amino)-3-isopropylpyrimidine-2,4(1H,3H)-dione] cannot be ordered by IC50: less than 1000 nM for the first, less than 1000 nM for the second.

First: CC(C)n1c(=O)cc(NCCC2CCOCC2)[nH]c1=O [Compound 13, 3-isopropyl-6-((2-(tetrahydro-2H-pyran-4-yl)ethyl)amino) pyrimidine-2,4(1H,3H)-dione]
Second: CC(C)n1c(=O)cc(N[C@@H](C)CC2CCOCC2)[nH]c1=O [Compound 14, (S)-3-isopropyl-6-((1-(tetrahydro-2H-pyran-4-yl)propan-2-yl)amino)pyrimidine-2,4(1H,3H)-dione]
The IC50 of the first is higher: greater than 15000 nM for the first, 1000 to 15000 nM for the second. The second is the more potent here.

First: CC(C)n1c(=O)cc(NCC2CCCCC2)[nH]c1=O [Compound 1, 6-((cyclohexylmethyl)amino)-3-isopropylpyrimidine-2,4(1H,3H)-dione]
Second: CC(C)n1c(=O)cc(NCC2CCCCCC2)[nH]c1=O [Compound 8, 6-((cycloheptylmethyl)amino)-3-isopropylpyrimidine-2,4(1H,3H)-dione]
The IC50 of the first is higher: 1000 to 15000 nM for the first, less than 1000 nM for the second.

`CC(C)n1c(=O)cc(NCC2CCCC2)[nH]c1=O` [Compound 2, 6-((Cyclopentylmethyl)amino)-3-isopropylpyrimidine-2,4(1H,3H)-dione] and `CC(C)n1c(=O)cc(NCC2CCC2)[nH]c1=O` [Compound 7, 6-((cyclobutylmethyl)amino)-3-isopropylpyrimidine-2,4(1H,3H)-dione] cannot be ordered by IC50: greater than 15000 nM for the first, greater than 15000 nM for the second.

Compared with `C[C@H](Nc1cc(=O)n(C2CCN(S(C)(=O)=O)CC2)c(=O)[nH]1)C1CCCCC1` [Compound 15, (S)-6-((1-cyclohexylethyl)amino)-3-(1-(methylsulfonyl)piperidin-4-yl)pyrimidine-2,4(1H,3H)-dione], `C[C@H](Nc1cc(=O)n(C2CCOCC2)c(=O)[nH]1)C1CCC(F)(F)CC1` [Compound 4, (S)-6-((1-(4,4-difluorocyclohexyl)ethyl)amino)-3-(tetrahydro-2H-pyran-4-yl)pyrimidine-2,4(1H,3H)-dione] is higher in IC50: less than 1000 nM for the first, 1000 to 15000 nM for the second. The first is the more potent here.

`CC(C)n1c(=O)cc(N[C@@H](C)CC2CC(F)(F)C2)[nH]c1=O` [Compound 10, (S)-6-((1-(3,3-difluorocyclobutyl)propan-2-yl)amino)-3-isopropylpyrimidine-2,4(1H,3H)-dione] was tested, and the IC50 was 1000 to 15000 nM.

These compounds were tested on adult rat ventricular myocytes (assay: Cardiomyocyte contractility assay (fractional shortening, IonOptix edge detection)). Settings: Ventricular myocyte, 0.3 uM compound, 1 Hz pacing.
Type: cell-based
Procedure: Contractility of adult rat ventricular myocytes is determined by edge detection with an IonOptix contractility system. Aliquots of myocytes in Tyrode buffer (137 mM NaCl, 3.7 mM KCl, 0.5 mM MgCl2, 1.5 mM CaCl2, 4 mM HEPES, 11 mM glucose) are placed in a perfusion chamber (Series 20 RC-27NE; Warner Instruments), allowed to adhere to the coverslip, and then perfused with 37° C. Tyrode buffer. Myocytes are filed stimulated at 1 Hz and 10V. Only myocytes with clear striations, quiescent prior to pacing, with a cell length of 120-180 microns, a basal fractional shortening equal to 3-8% of the cell length, and a contraction velocity greater than 100 microns per second are used for contractility experiments. To determine the response to compounds, myocytes are first perfused for 60 seconds with Tyrodes buffer followed by 5 minutes of compound and a 140 second washout with Tyrodes buffer. Data is continuously recorded using IonOptix software. Contractility data is analyzed using lonwizard software (IonOptix). For each cell, 10-20 contractility transients were averaged and compared under basal (no compound) and compound-treated conditions. Compound activity is measured by effects on fractional shortening (FS), where fractional shortening is the ratio of the peak length of the cell at contraction divided by the basal cell length normalized to 100% for an untreated cell.

For `CC(C)n1c(=O)cc(N[C@@H](C)CC2CCC(F)(F)CC2)[nH]c1=O` [Compound 3, (S)-6-((1-(4,4-Difluorocyclohexyl)propan-2-yl)amino)-3-isopropylpyrimidine-2,4(1H,3H)-dione], the inhibition at 0.3 µM was greater than 66%.

Same assay, conditions: Ventricular myocyte, 1.0 uM compound, 1 Hz pacing

First: CC(C)n1c(=O)[nH]c(N[C@@H](C)C2CCC(F)(F)CC2)c(F)c1=O [Compound 5, (S)-6-((1-(4,4-difluorocyclohexyl)ethyl)amino)-5-fluoro-3-isopropylpyrimidine-2,4(1H,3H)-dione]
Second: CC(C)n1c(=O)cc(N[C@@H](C)C2CCC(F)(F)CC2)[nH]c1=O [Compound 9, (S)-6-((1-(4,4-difluorocyclohexyl)ethyl)amino)-3-isopropylpyrimidine-2,4(1H,3H)-dione]
The inhibition at 1 µM of the first is lower: 33 to 66% for the first, greater than 66% for the second.

From patent publication US9199945B2, “Cycloalkyl-substituted pyrimidinedione compounds” (MyoKardia, Inc., priority 2013, dated 2015)
